In ChEMBL document CHEMBL1150135, “Pharacine, a natural p-cyclophane and other indole derivatives from Cytophaga sp. strain AM13.1” (J Nat Prod, 2002):
The source made the active and inactive calls.

Columns and labels:
Format in all cases: functional, organism-based
[1] = tested on: Streptomyces viridochromogenes; assay: Antimicrobial activity against Streptomyces viridochromogenes by agar diffusion method
[2] = tested on: Rhizomucor miehei; assay: Antimicrobial activity against Mucor miehei by agar diffusion method
[3] = tested on: Bacillus subtilis; assay: Antimicrobial activity against Bacillus subtilis by agar diffusion method
[4] = tested on: Staphylococcus aureus; assay: Antimicrobial activity against Staphylococcus aureus by agar diffusion method
[5] = tested on: Escherichia coli; assay: Antimicrobial activity against Escherichia coli by agar diffusion method
[6] = tested on: Candida albicans; assay: Antimicrobial activity against Candida albicans by agar diffusion method

Measured: Activity

NC(=O)Cc1ccc(O)cc1
inactive: [1] | [2] | [3] | [4] | [5] | [6]

c1ccc2c(Cc3cnc(Cc4c[nH]c5ccccc45)cn3)c[nH]c2c1
inactive: [1] | [2] | [3] | [4] | [5] | [6]

CC(C)CC(=O)NCCc1c[nH]c2ccccc12
inactive: [1] | [2] | [3] | [4] | [5] | [6]

O=C1OCCCCOC(=O)c2ccc(cc2)C(=O)OCCCCOC(=O)c2ccc1cc2
inactive: [1] | [2] | [3] | [4] | [5] | [6]
